These results are taken from ChEMBL document CHEMBL5029152, “Discovery of Highly Potent and Selective IRAK1 Degraders to Probe Scaffolding Functions of IRAK1 in ABC DLBCL” (J Med Chem, 2021).

The source made the active and inactive calls. The rule behind the calls is not given here.

In experiment [1] the target is T1, Interleukin-1 receptor-associated kinase 4 (Homo sapiens, UniProt Q9NWZ3).
T1 sequence (Q9NWZ3 whole entry): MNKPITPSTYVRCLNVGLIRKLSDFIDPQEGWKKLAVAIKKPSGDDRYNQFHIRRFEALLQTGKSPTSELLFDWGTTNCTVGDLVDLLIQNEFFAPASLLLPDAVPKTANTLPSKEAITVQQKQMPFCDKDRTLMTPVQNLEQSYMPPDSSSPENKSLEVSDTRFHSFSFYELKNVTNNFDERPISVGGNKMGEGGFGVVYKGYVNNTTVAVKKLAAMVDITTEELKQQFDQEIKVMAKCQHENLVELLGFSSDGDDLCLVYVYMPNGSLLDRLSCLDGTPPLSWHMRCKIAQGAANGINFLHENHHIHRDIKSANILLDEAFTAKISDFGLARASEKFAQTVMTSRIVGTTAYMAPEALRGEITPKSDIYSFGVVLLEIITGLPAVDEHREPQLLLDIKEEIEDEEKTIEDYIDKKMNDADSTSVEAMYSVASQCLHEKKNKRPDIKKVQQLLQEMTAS
The experiment is described as follows: Inhibition of full length human N-terminal GST-fusion tagged IRAK4 expressed in baculovirus expression system using FAM-labelled peptide as substrate preincubated for 10 mins followed by substrate addition and further incubated for 1 hr in presence of ATP at Km concentration by caliper mobility shift assay.

Experiment [2] has as its target T2, von Hippel-Lindau disease tumor suppressor/Interleukin-1 receptor-associated kinase 1 (Homo sapiens, UniProt P51617+P40337). The experiment is described as follows: Protac activity at IRAK1/VHL E3 ligase in HEK293T cells assessed as induction of IRAK1 degradation at 10 uM measured after 24 hrs by Western blot analysis relative to control. The format is cell-based.
Target sequence in this assay (P40337 whole entry, looked up): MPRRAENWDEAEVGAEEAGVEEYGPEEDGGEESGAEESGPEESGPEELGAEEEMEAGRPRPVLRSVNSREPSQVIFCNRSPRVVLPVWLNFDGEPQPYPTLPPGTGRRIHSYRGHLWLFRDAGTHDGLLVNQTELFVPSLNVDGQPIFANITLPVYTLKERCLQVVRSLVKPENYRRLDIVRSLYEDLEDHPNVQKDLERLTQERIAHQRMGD
Target sequence in this assay (P51617 whole entry, looked up): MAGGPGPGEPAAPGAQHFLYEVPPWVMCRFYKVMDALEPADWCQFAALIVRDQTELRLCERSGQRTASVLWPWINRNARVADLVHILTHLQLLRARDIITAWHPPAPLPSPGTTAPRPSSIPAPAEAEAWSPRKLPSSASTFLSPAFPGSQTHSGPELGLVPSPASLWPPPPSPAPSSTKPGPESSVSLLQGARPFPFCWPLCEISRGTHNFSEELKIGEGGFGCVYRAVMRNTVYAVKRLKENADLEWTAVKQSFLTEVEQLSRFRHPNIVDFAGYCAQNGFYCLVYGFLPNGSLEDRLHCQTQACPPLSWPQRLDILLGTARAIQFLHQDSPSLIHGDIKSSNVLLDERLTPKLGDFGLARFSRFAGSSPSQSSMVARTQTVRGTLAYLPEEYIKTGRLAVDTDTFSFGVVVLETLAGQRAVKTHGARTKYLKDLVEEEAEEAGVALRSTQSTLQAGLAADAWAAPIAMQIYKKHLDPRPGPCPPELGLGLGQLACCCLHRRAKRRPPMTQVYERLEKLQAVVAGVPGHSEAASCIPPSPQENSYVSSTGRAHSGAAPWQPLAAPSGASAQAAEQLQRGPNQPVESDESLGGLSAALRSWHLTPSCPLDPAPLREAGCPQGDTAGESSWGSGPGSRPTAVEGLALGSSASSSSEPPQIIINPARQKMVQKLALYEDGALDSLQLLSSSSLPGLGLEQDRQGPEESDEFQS

The target of experiment [3] is T2, von Hippel-Lindau disease tumor suppressor/Interleukin-1 receptor-associated kinase 1. The experiment is described as follows: Protac activity at IRAK1/VHL E3 ligase in HEK293T cells assessed as induction of IRAK1 degradation measured after 24 hrs by Western blot analysis. Type of experiment: cell-based. On the technique in general: In western blotting, separated proteins are transferred to a membrane and probed.
Target sequence in this assay (P51617 whole entry): as the sequence (P51617 whole entry, looked up) above
Target sequence in this assay (P40337 whole entry): as the sequence (P40337 whole entry, looked up) above

Experiment [4] deals with von Hippel-Lindau disease tumor suppressor (Homo sapiens, UniProt P40337). The experiment is described as follows: Displacement of 5-FAM-labelled DEALA-HypYIPMDDDFQLRSF peptide from VHL (unknown origin) by fluorescence polarization assay. In general terms: In fluorescence polarisation assays a small probe gives low polarisation when free and higher when bound to something large.

Experiment [5] addresses T2, von Hippel-Lindau disease tumor suppressor/Interleukin-1 receptor-associated kinase 1. The experiment is described as follows: Protac activity at IRAK1/VHL E3 ligase in HEK293T cells assessed as induction of IRAK1 degradation at 1 uM measured after 24 hrsin presence of proteasome inhibitior MG-132 by Western blot analysis. The note with it: time 24.0 hrs. The format is cell-based.
Target sequence in this assay (P40337 whole entry, looked up): as above
Target sequence in this assay (P51617 whole entry, looked up): as the sequence (P51617 whole entry, looked up) above

Experiment [6] has the same target. Briefly: Protac activity at IRAK1/VHL E3 ligase in HEK293T cells assessed as induction of IRAK1 degradation at 1 uM measured after 24 hrsin presence of VH298 by Western blot analysis. The format is cell-based. The note with it: time 24.0 hrs.
Target sequence in this assay (P40337 whole entry, looked up): as the sequence (P40337 whole entry, looked up) above
Target sequence in this assay (P51617 whole entry, looked up): as the sequence (P51617 whole entry, looked up) above
Experiment [7] addresses BMP-2-inducible protein kinase (Homo sapiens) (UniProt Q9NSY1). Briefly: Inhibition of wild-type human partial length BIKE (S34 to N329 residues) expressed in bacterial expression system at 1 uM by Kinomescan method.
Experiment [8] addresses T3, Serine/threonine-protein kinase 17B (Homo sapiens) (UniProt O94768).
T3 sequence (whole entry): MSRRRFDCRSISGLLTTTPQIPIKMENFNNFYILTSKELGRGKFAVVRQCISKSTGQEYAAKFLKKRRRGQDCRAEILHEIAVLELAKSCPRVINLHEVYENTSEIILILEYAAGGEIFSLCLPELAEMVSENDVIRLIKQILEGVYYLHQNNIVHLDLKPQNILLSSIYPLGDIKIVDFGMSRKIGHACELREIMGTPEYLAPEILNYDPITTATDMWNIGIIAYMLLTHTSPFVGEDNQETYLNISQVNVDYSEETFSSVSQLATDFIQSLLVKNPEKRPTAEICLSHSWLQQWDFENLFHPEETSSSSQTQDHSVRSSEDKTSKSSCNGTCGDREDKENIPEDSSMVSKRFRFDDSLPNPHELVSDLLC
Briefly: Inhibition of wild-type human full length DRAK2 (M1 to C372 residues) expressed in bacterial expression system at 1 uM by Kinomescan method.

Experiment [9] addresses NmrA-like family domain-containing protein 1 (Homo sapiens) (UniProt Q9HBL8). Briefly: Induction of NMRAL1 degradation in human Toledo cells assessed as decrease in protein abundance at 1 uM measured after 6 hrs by quantitative mass spectrometry. The format is cell-based.
In experiment [10] the target is T4, Cyclin-G-associated kinase (Homo sapiens) (UniProt O14976).
T4 sequence (whole entry): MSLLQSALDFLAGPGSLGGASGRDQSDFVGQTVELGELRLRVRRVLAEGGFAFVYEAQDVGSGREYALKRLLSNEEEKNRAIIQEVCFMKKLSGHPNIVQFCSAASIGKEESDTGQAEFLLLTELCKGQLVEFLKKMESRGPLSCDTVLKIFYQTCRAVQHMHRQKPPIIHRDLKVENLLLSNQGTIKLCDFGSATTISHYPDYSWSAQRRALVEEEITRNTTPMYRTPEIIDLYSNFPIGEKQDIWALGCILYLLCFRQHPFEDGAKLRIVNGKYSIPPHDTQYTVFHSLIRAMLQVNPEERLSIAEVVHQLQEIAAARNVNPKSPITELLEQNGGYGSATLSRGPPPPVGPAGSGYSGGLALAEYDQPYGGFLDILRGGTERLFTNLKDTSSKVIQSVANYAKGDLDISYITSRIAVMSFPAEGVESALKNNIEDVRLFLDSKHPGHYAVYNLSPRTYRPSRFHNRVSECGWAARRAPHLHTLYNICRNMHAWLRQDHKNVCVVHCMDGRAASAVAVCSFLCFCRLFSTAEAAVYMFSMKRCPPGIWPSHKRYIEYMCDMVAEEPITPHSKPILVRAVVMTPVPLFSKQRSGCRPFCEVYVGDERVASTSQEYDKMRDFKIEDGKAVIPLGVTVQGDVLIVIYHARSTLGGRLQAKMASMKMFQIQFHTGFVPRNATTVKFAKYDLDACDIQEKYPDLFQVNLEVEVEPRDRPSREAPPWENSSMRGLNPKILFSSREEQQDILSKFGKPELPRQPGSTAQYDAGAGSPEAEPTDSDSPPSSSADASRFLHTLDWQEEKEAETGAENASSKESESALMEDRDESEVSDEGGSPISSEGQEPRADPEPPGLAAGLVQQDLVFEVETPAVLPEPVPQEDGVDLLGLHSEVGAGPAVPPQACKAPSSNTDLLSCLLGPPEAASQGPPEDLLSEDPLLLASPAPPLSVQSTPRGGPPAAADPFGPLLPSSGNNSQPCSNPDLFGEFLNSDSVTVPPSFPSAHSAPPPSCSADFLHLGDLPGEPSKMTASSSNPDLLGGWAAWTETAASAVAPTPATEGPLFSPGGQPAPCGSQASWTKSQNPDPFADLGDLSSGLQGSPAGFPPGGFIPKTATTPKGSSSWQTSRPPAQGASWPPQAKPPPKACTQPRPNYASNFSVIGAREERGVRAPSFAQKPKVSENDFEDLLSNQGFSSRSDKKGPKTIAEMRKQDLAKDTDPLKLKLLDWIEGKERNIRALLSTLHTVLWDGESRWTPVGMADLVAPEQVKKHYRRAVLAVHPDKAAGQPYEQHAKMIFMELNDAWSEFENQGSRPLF
Briefly: Inhibition of wild-type human partial length GAK (G13 to Y338 residues) expressed in bacterial expression system at 1 uM by Kinomescan method relative to control.

Chain of BMP-2-inducible protein kinase (Homo sapiens) (Q9NSY1 whole entry, looked up, the tested form may be a part): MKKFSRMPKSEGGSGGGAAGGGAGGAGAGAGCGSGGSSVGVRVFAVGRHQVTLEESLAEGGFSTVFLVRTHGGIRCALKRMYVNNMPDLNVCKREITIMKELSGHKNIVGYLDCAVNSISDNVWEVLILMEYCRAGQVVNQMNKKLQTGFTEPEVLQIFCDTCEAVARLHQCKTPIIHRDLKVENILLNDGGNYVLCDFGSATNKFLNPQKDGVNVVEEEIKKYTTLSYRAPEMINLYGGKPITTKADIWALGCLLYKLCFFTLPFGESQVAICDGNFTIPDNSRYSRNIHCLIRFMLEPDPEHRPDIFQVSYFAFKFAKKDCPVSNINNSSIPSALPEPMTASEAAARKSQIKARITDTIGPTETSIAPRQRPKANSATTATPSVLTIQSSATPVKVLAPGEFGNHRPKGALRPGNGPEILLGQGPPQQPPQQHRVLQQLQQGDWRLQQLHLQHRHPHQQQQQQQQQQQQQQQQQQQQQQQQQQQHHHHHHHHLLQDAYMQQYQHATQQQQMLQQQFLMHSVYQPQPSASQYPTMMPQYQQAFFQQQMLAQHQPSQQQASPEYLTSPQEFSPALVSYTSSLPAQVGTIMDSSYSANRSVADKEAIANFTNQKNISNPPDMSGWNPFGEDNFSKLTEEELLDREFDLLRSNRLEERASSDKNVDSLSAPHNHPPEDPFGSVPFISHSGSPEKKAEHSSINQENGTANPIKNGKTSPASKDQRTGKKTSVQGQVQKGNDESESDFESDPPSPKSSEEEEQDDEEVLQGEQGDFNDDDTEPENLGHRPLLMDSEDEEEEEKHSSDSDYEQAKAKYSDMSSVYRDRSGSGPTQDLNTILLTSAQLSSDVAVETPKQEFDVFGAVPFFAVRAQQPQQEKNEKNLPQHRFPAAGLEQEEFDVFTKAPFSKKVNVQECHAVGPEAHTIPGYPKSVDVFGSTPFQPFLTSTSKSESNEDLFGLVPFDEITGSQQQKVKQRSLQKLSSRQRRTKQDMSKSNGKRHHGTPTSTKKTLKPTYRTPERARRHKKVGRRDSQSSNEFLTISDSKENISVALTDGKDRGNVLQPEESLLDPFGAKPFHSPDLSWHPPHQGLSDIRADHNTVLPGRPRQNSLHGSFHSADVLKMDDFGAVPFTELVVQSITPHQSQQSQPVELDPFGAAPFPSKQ
Chain of NmrA-like family domain-containing protein 1 (Homo sapiens) (Q9HBL8 whole entry, the tested form may be a part): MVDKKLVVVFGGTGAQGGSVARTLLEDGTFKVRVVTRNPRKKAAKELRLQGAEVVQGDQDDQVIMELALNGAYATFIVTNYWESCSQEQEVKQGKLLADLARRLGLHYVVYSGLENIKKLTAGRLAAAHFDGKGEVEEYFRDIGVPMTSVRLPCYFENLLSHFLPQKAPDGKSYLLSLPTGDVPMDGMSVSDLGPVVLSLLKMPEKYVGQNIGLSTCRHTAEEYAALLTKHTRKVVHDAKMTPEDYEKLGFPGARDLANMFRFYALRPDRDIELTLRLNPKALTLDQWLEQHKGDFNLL
Chain of von Hippel-Lindau disease tumor suppressor (P40337 whole entry): as the sequence (P40337 whole entry, looked up) above

As usually defined, the IC50 is the concentration at which inhibition is half-maximal. By DC50 is commonly meant the concentration at which degradation of the target reaches its halfway point. A word on the inhibition: it is the relative decrease from the control value, in per cent. `COc1cc(N2CCC(OCC(=O)N[C@H](C(=O)N3C[C@H](O)C[C@H]3C(=O)N[C@@H](C)c3ccc(-c4scnc4C)cc3)C(C)(C)C)CC2)ccc1NC(=O)c1cccc(-c2ccn[nH]2)n1`: the IC50 was determined as 0.443 µM in experiment [1] and 1.07 µM in experiment [4]. Also, in experiment [2], the %max was determined as 96%. Also, the 50% degradation concentration (DC50) in experiment [3] turned out to be 0.0033 µM. The outcome in experiment [5] and in [6] was inactive. Also, the inhibition result in experiment [7] and in [8] was “Active” throughout. For the same compound, in [9], the result was Active. In experiment [10], this compound displayed an inhibition of 63%.
